According to patent publication US8013011B2, “Treatment and prevention of benign pigmented moles (naevi) using artemisinine and the derivatives thereof” (EPIPHARM GmbH, priority 2005, dated 2011):

Assay: Skin tolerability observed during the topical treatments
Type: in vivo, human
Conditions: described topical treatments
Description: A low-risk, non-invasive preventative or therapeutic treatment of acquired nevus cell nevi or of acquired or congenital nevus cell nevi (=birthmarks) with artemisinine and derivatives thereof (dihydroartemisinine, arteether, arthemeter, artesunate semisynthetic derivatives thereof and synthetically analogous compounds) represents enormous progress in the treatment of nevus cell nevi and could drastically reduce the risk of skin cancer. The invention is thus of great significance not only medically but also socioeconomically. […] It is also remarkable that healthy tissue is not damaged and the treatment is painless and simple.

In the case of `C[C@H]1[C@H](OC(=O)CCC(=O)O)O[C@@H]2O[C@@]3(C)CC[C@H]4[C@H](C)CC[C@@H]1[C@@]24OO3` [artesunate], the allergic skin reactions is reported as “No allergic skin reactions”.
